≈ marks a conversion by molar mass, not a printed value.
What was measured:
[1] = system: histamine; assay: Muscle tone of isolated ileal smooth muscle of guinea pigs contracted with histamine; conditions: Table 4; relative to tone after adding histamine; x±s, n = 8; 3 min
Procedure: (§1) The guinea pig was knocked unconscious with a wooden stick, and the abdomen was immediately dissected to separate the ileum about 15 cm in length. The contents of the intestinal segment were flushed with Tyrode's solution and placed in Tyrode's solution at a constant temperature of 37°C for later use, and oxygen was supplied simultaneously. The experimental intestinal tract (1 cm in length) was cut and placed into 20 ml of Tyrode's solution at a constant temperature of 37°C with a continuous oxygen supply. One end of the intestine was fixed on the ventilation hook and the other end was connected to the muscle tone transducer and led to the computer interface. The muscle tone value of the ileal smooth muscle was recorded with a BL system. The experiment was carried out after the intestinal segment contraction became stable.
(§2) After the ileal peristalsis curve stabilized, the tone values before adding the compound were recorded, and then 0.05 mL of histamine was added. […] The operation was repeated 8 times. The antispasmodic percentage was calculated using the following equation. Antispasmodic percentage; = (Tone value after adding histamine−Tone value after adding subject compound)/(Tone value after adding histamine) × 100% [formula]

[2] = Solubility in water, methanol and isopropanol; conditions: for solubility Isopropanol: in isopropanol; for solubility Water: in water
Procedure: The solubility in water, methanol, and isopropanol of the compounds of the present disclosure and the comparative compounds were measured separately.

[3] = system: isolated ileal smooth muscle; assay: Muscle tone of isolated ileal smooth muscle of guinea pigs, compound alone; conditions: Table 3, no histamine, X±s, n = 8; for Antispasmodic percentage (%): relative to tone before adding compound, 5 min; for Smooth muscle tone (g) After administration: 5 minutes after adding the drug
Procedure: as §1
After the ileum contraction curve stabilized, the tone values before adding the drug were recorded, then the drug or DMSO was added, and the average tone value of the ileum contraction curve at that point was recorded 5 minutes later. The operation was repeated 8 times. The antispasmodic percentage was calculated according to the following formula. Antispasmodic percentage =; (Tone value before adding subject compound−Tone value after adding subject compound)/(Tone value before adding subject compound) × 100% [formula]

[4] = system: histamine-induced asthma; assay: Antiasthmatic effect on histamine-induced asthma in guinea pigs (latency period); assay type: in vivo; conditions: 1 mg/kg oral gavage, sixty minutes after administration; histamine hydrochloride spray; no asthma within 8 minutes counted as 8 minutes; X±s, n = 5
Procedure: The guinea pigs were placed in a polymethyl methacrylate bell jar and a histamine hydrochloride solution was sprayed ultrasonically (0.8 mg/mL) for 40 seconds. The time point at which the guinea pigs developed asthma was recorded. The time of convulsion and fall was taken as the latency period. Guinea pigs with a latency period exceeding 180 seconds were not selected. […] The guinea pigs were administered by oral gavage at a dose of 2 mL/kg·bw. Sixty minutes after the administration, the guinea pigs were placed in bell jars, and histamine hydrochloride solution was sprayed under the same conditions as in the previous selection. The latency period for the onset of asthma was recorded. […] The results were processed statistically.

[5] = Muscle tone of isolated ileal smooth muscle of guinea pigs contracted with histamine; conditions: Table 4; 3 minutes after adding 0.05 mL compound at maximum histamine contraction; x±s, n = 8
Procedure: as §1, §2

[6] = Accelerated stability test; assay type: physicochemical; conditions: 40°C ± 2°C, relative humidity 75% ± 5%; for remaining at 730 h / remaining at 1460 h / remaining at 2190 h / remaining at 4380 h: storage 75% relative humidity, read-out: Content

Content ([6]; Month 0)	Description ([6]; Month 0)	Related substances ([6]; Month 0)	Description ([6]; Month 1)	Related substances ([6]; Month 1)	Description ([6]; Month 2)	Related substances ([6]; Month 2)	Description ([6]; Month 3)	Related substances ([6]; Month 3)	Description ([6]; Month 6)	Related substances ([6]; Month 6)	remaining at 730 h ([6]; Month 1)	remaining at 1460 h ([6]; Month 2)	remaining at 2190 h ([6]; Month 3)	remaining at 4380 h ([6]; Month 6)	SMILES	Antispasmodic percentage (%) [1]	Antispasmodic percentage (%) [3]	Post-administration latency period [4]	Smooth muscle tone (g) After administration [5]	Smooth muscle tone (g) After administration [3]	other results
															O=P(O)(O)OCCCN1CCC(=C2c3ccc(Cl)cc3CCc3cccnc32)CC1 [Compound III-7]	65.36±17.20%	29.88±18.88%	382.57 ± 51.11 s			solubility Isopropanol [2]: 22 mg/mL (≈ 49 mM)
															O=P(O)(O)OCCCCN1CCC(=C2c3ccc(Cl)cc3CCc3cccnc32)CC1 [Compound III-10]	65.24±18.39%		370.80 ± 51.23 s	1.22 ± 0.19 g	1.15 ± 0.26 g	solubility Isopropanol [2]: 25 mg/mL (≈ 54 mM)
99.6%	White powder	0.03%	White powder	0.06%	White powder	0.11%	White powder	0.15%	White powder	0.32%	99.5%	99.5%	99.5%	99.3%	O=P(O)(O)OCCCCCN1CCC(=C2c3ccc(F)cc3CCc3cccnc32)CC1 [Compound III-14]	66.07±19.34%	31.79±17.77%	372.40 ± 50.33 s	1.15 ± 0.22 g	1.18 ± 0.28 g	
99.7%	White powder	0.03%	White powder	0.06%	White powder	0.12%	White powder	0.16%	White powder	0.34%	99.6%	99.5%	99.5%	99.4%	O=P(O)(O)OCOCCCCN1CCC(=C2c3ccc(Cl)cc3CCc3cccnc32)CC1 [Compound III-18]	65.50±19.34%	34.30±18.66%	354.29 ± 50.81 s	1.18 ± 0.26 g	1.13 ± 0.21 g	
															O=P(O)(O)OCCCN1CCC(=C2c3ccc(Cl)cc3CCc3cccnc32)CC1 [Compound IV-3]	64.11±19.66%	32.00±19.55%	375.50 ± 47.99 s			solubility Isopropanol [2]: 1 mg/mL (≈ 2.23 mM); solubility Methanol ([2]; in methanol): 21 mg/mL (≈ 46.8 mM); solubility ([2]; water): 390 mg/mL (≈ 869 mM)
99.7%	White powder	0.03%	White powder	0.04%	White powder	0.05%	White powder	0.06%	White powder	0.10%	99.7%	99.7%	99.7%	99.6%	O=P(O)(O)OCOCCCN1CCC(=C2c3ccc(Cl)cc3CCc3cccnc32)CC1 [Compound IV-9]	65.89±19.76%	32.75±19.48%	361.82 ± 51.36 s	1.18 ± 0.29 g	1.17 ± 0.25 g	
															Clc1ccc2c(c1)CCc1cccnc1C2=C1CCNCC1 [Desloratadine, desloratadine, reference compound]						solubility Water [2]: Practically insoluble
															OCCCCCCN1CCC(=C2c3ccc(Cl)cc3CCc3cccnc32)CC1 [Hydroxyhexyl desloratadine, hydroxyhexyl desloratadine, reference compound]		26.31±13.96%	283.84 ± 58.88 s	1.43 ± 0.43 g	1.26 ± 0.23 g	solubility Water [2]: Practically insoluble
															OCCCCCN1CCC(=C2c3ccc(Cl)cc3CCc3cccnc32)CC1 [Hydroxypentyl desloratadine, hydroxypentyl desloratadine, reference compound]		28.73±11.32%	280.29 ± 58.19 s	1.41 ± 0.42 g	1.24 ± 0.22 g	solubility Water [2]: Practically insoluble
															OCCCN1CCC(=C2c3ccc(Cl)cc3CCc3cccnc32)CC1 [Hydroxypropyl desloratadine, hydroxypropyl desloratadine, reference compound]		24.70±13.43%	288.33 ± 58.12 s	1.41 ± 0.42 g	1.28 ± 0.25 g	solubility Water [2]: Practically insoluble

SMILES	Content ([6]; Month 0)	Description ([6]; Month 0)	Related substances ([6]; Month 0)	Description ([6]; Month 1)	Related substances ([6]; Month 1)	Description ([6]; Month 2)	Related substances ([6]; Month 2)	Description ([6]; Month 3)	Related substances ([6]; Month 3)	Description ([6]; Month 6)	Related substances ([6]; Month 6)	remaining at 730 h ([6]; Month 1)	remaining at 1460 h ([6]; Month 2)	remaining at 2190 h ([6]; Month 3)	remaining at 4380 h ([6]; Month 6)	Antispasmodic percentage (%) [1]	Antispasmodic percentage (%) [3]	Post-administration latency period [4]	Smooth muscle tone (g) After administration [5]	Smooth muscle tone (g) After administration [3]	other results
O=P(O)(O)OCCN1CCC(=C2c3ccc(Cl)cc3CCc3cccnc32)CC1 [Compound IV-2]	99.6%	White powder	0.03%	White powder	0.05%	White powder	0.09%	White powder	0.13%	White powder	0.26%	99.6%	99.5%	99.5%	99.4%	65.56±19.28%	33.14±18.39%	383.10 ± 50.33 s	1.18 ± 0.19 g	1.19 ± 0.31 g	
O=P(O)(O)OCOCCN1CCC(=C2c3ccc(Cl)cc3CCc3cccnc32)CC1 [Compound IV-8]	99.6%	White powder	0.03%	White powder	0.06%	White powder	0.09%	White powder	0.14%	White powder	0.28%	99.6%	99.5%	99.5%	99.3%	65.50±19.11%	30.81±18.93%	360.12 ± 52.01 s	1.19 ± 0.28 g	1.19 ± 0.29 g	
